Usually IC50 stands for the point on the concentration scale where inhibition reaches its midpoint. In general, MBC refers to the smallest concentration meeting the test's criterion for killing. For orientation: MIC means the least concentration at which growth counts as inhibited. A lower MIC goes with inhibition by little substance.

Consider 16 molecules from ChEMBL document CHEMBL1926672, “New 5-benzylidenethiazolidin-4-one inhibitors of bacterial MurD ligase: design, synthesis, crystal structures, and biological evaluation” (Eur J Med Chem, 2011).

Converted amounts (≈) assume the structure as drawn.

Assay [1] in a line: Inhibition of Escherichia coli MurD ligase assessed as residual activity after 15 mins using UDP-MurNAc-L-Ala substrate by malachite green colorimetric method.
Assay [2] concerns Escherichia coli. Put plainly: Inhibition of Escherichia coli MurD ligase assessed as residual activity at 500 uM after 15 mins using UDP-MurNAc-L-Ala substrate by malachite green colorimetric method.
The test system of assay [3] is Escherichia coli. Description: Antibacterial activity against Escherichia coli ATCC 25922 after 18 to 24 hrs by macrodilution technique. The format is functional.
In another assay the test system is Pseudomonas aeruginosa. Put plainly: Antibacterial activity against Pseudomonas aeruginosa […] after 18 to 24 hrs by macrodilution technique. Format: functional.
The subject of a further assay is Enterococcus faecalis. Description: Antibacterial activity against Enterococcus faecalis ATCC 29212 after 18 to 24 hrs by macrodilution technique. The format is functional.
For a further assay, the system named is Staphylococcus aureus. Put plainly: Antibacterial activity against Staphylococcus aureus ATCC 29213 after 18 to 24 hrs by macrodilution technique. Format: functional.
Assay [4] in a line: Inhibition of Escherichia coli MurD ligase assessed as addition of D-[14C]glu to UDP-N-acetyl-muramoyl-L-alanine after 30 mins by radioactivity assay.
Assay [5] deals with Escherichia coli. Put plainly: Inhibition of Escherichia coli MurD ligase assessed as residual activity at 250 uM after 15 mins using UDP-MurNAc-L-Ala substrate by malachite green colorimetric method.

As to `O=C(O)CC[C@@H](NS(=O)(=O)c1ccc(COc2ccc(/C=C3\SC(=S)NC3=O)cc2OCC(=O)O)cc1)C(=O)O`, the IC50 in assay [1] is 472 µM.

As for `O=C(O)CC[C@@H](NS(=O)(=O)c1ccc(COc2ccc(/C=C3\SC(=O)NC3=O)cc2OCC(=O)O)cc1)C(=O)O`, the IC50 in assay [1] was 814 µM.

`O=C(O)CC[C@@H](NC(=O)c1cccc(COc2ccc(/C=C3\SC(=O)NC3=O)cc2)c1)C(=O)O`: the IC50 in assay [1] turned out to be 128 µM.

Consider `O=C(O)CC[C@@H](NC(=O)c1cccc(COc2cccc(/C=C3\SC(=O)NC3=O)c2)c1)C(=O)O`, for which the Activity with Escherichia coli [2] is 65%.

For the molecule `O=C(O)CC[C@@H](NC(=O)c1ccc(COc2ccc(/C=C3\SC(=S)NC3=O)cc2OCC(=O)O)cc1)C(=O)O`, the minimum bactericidal concentration (MBC) with Escherichia coli [3], in the assay with Pseudomonas aeruginosa, in the assay on Enterococcus faecalis and in the assay on Staphylococcus aureus was over 128 µg/mL throughout. Also, the minimum inhibitory concentration (MIC) against Escherichia coli [3] was over 128 µg/mL; with Pseudomonas aeruginosa it was over 128 µg/mL; against Enterococcus faecalis, 128 µg/mL (≈ 223 µM); against Staphylococcus aureus, 128 µg/mL (≈ 223 µM). In assay [4], the IC50 was found to be 34 µM.

`O=C(O)CC[C@@H](NC(=O)c1cccc(CNc2ccc(/C=C3\SC(=S)NC3=O)cc2)c1)C(=O)O`: the IC50 in assay [4] is 45 µM.

With `O=C(O)CC[C@@H](NC(=O)c1cccc(COc2ccc(/C=C3\SC(=S)NC3=O)cc2)c1)C(=O)O`, the IC50 in assay [1] came to 76 µM.

As for `O=C(O)CC[C@@H](NC(=O)c1ccc(COc2cccc(/C=C3\SC(=O)NC3=O)c2)cc1)C(=O)O`, the Activity in the assay with Escherichia coli [2] came out at 79%.

In the case of `O=C(O)CC[C@@H](NC(=O)c1cccc(COc2ccc(Cn3ccc(=O)[nH]c3=O)cc2)c1)C(=O)O`, in the assay on Escherichia coli [2], the Activity was found to be 86%.

Take `O=C(O)CC[C@@H](NS(=O)(=O)c1ccc(COc2cccc(/C=C3\SC(=O)NC3=O)c2)cc1)C(=O)O`: the Activity in the assay on Escherichia coli [5] stood at 71%.

Regarding `O=C(O)CC[C@@H](NC(=O)c1cccc(COc2cccc(/C=C3\SC(=S)NC3=O)c2)c1)C(=O)O`, the 50% inhibitory concentration (IC50) in assay [4] was determined as 47 µM.

`O=C(O)CC[C@@H](NC(=O)c1ccc(COc2cccc(/C=C3\SC(=S)NC3=O)c2)cc1)C(=O)O`: the MBC in the assay on Escherichia coli [3], against Pseudomonas aeruginosa, in the assay with Enterococcus faecalis and against Staphylococcus aureus was over 128 µg/mL in each case. For the same molecule, the MIC in the assay on Escherichia coli [3], with Pseudomonas aeruginosa, against Enterococcus faecalis and with Staphylococcus aureus was over 128 µg/mL in each case. Also, in assay [4], the IC50 was found to be 28 µM.

On to `O=C(O)CC[C@@H](NC(=O)c1ccc(COc2ccc(Cn3ccc(=O)[nH]c3=O)cc2)cc1)C(=O)O`, for which, in the assay on Escherichia coli [2], the Activity turned out to be 85%.

With `O=C(O)CC[C@@H](NS(=O)(=O)c1ccc(COc2ccc(/C=C3\SC(=S)NC3=O)cc2)cc1)C(=O)O`, the IC50 in assay [4] turned out to be 120 µM.

Turning to `O=C(O)CC[C@@H](NC(=O)c1ccc(COc2ccc(/C=C3\SC(=O)NC3=O)cc2OCC(=O)O)cc1)C(=O)O`, the Activity in the assay on Escherichia coli [2] was 86%.

On to `O=C(O)CC[C@@H](NS(=O)(=O)c1ccc(COc2cccc(/C=C3\SC(=S)NC3=O)c2)cc1)C(=O)O`, for which the MBC with Escherichia coli [3], with Pseudomonas aeruginosa, against Enterococcus faecalis and with Staphylococcus aureus was over 128 µg/mL each time. The minimum inhibitory concentration (MIC) in the assay on Escherichia coli [3], against Pseudomonas aeruginosa, against Enterococcus faecalis and against Staphylococcus aureus was over 128 µg/mL in each case. Further, in assay [4], the IC50 was 45 µM.
